This note sets out measurements from ChEMBL document CHEMBL1137964, “Synthesis and biological evaluation of 6-aryl-6H-pyrrolo[3,4-d]pyridazine derivatives: high-affinity ligands to the alpha 2 delta subunit of voltage gated calcium channels” (Bioorg Med Chem Lett, 2004).

For orientation: pIC50 means the negative decadic logarithm of the IC50, by convention in mol/L. As a reminder, the half-life is the time in which the quantity being followed falls by half. High values mean slow loss, low ones fast loss. As usually defined, the AUC is the area under the concentration-time curve, a measure of exposure. Low values mean less exposure, high ones more exposure. The term Cmax denotes the peak of the concentration-time curve. For orientation: bioavailability means the share of a dose that reaches the circulation, judged against a reference dose that is usually intravenous. A higher bioavailability goes with much systemic uptake.

pIC50: −log10 of the molar value.

Series [1] deals with Voltage-dependent calcium channel subunit alpha-2/delta-1 (Homo sapiens, UniProt P54289). Kind of series: Binding affinity for huamn alpha2-delta1 subunit of voltage gated calcium channel over-expressed in A710 cell membranes using [3H]-gabapentin.
Voltage-dependent calcium channel subunit alpha-2/delta-1, sequence (P54289 25-956 limits assumed): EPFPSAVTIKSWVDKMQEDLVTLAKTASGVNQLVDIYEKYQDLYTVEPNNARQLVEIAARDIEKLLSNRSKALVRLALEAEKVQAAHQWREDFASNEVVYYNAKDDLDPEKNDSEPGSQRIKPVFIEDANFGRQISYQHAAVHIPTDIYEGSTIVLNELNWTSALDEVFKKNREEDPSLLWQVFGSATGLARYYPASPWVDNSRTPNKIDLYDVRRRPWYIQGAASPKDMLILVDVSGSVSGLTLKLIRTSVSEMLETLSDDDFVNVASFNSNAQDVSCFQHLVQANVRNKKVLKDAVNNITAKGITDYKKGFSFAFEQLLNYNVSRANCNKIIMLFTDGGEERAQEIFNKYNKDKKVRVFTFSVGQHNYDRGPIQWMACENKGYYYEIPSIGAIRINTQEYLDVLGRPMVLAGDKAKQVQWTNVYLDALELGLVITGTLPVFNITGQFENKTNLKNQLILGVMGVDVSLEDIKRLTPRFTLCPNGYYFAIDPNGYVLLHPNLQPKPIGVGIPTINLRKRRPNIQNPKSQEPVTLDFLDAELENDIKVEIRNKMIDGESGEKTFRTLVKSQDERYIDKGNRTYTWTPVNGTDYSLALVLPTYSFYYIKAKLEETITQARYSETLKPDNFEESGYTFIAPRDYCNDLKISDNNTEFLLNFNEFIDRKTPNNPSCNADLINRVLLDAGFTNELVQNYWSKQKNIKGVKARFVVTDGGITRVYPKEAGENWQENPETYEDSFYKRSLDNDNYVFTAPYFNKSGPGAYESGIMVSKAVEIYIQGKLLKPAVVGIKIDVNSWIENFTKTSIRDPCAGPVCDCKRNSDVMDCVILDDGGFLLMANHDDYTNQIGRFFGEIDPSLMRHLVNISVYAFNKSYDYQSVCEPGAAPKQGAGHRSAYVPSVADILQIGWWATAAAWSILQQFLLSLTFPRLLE
Voltage-dependent calcium channel subunit alpha-2/delta-1, sequence (P54289 957-1103 limits assumed): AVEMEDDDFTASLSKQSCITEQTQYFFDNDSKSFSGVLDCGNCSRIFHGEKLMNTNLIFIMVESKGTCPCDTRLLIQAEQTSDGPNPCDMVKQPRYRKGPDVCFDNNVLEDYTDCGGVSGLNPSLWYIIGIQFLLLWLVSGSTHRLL
Series [2] in a line: Half-life period was determined in rats at 10 mg/kg, p.o. dose. It is filed as ADME, organism-based. More on the design: dose 10 mg/kg, route oral. The following applies: rat, in vivo, po.
Series [3] in a line: Half-life period was determined in rats at 20 mg/kg, i.p. dose. It is filed as ADME, organism-based. The following applies: rat, in vivo, ip. More on the design: dose 20 mg/kg, route intraperitoneal.
A short description of series [4]: Half-life period was determined in rats at 2 mg/kg, i.v. dose. It is filed as ADME, organism-based. More on the design: dose 2 mg/kg, route intravenous. The following applies: rat, in vivo, iv.
Series [5] in a line: Plasma clearance rate was determined in rats at 2 mg/kg, i.v. dose. It is filed as ADME, organism-based. More on the design: dose 2 mg/kg, route intravenous. As to conditions: rat, iv, read-out: Clp.
For series [6], the system named is Rattus norvegicus. The experiment in a line: Time required by compound for reaching maximum plasma concentration was determined in rats at 20 mg/kg, i.p. dose. Also noted: dose 20 mg/kg, route intraperitoneal. As to conditions: in vivo, ip. Type of series: ADME, organism-based.
Series [7] can be described thus: Volume of distribution at steady state was determined in rats at 2 mg/kg, i.v. dose. Also noted: dose 2 mg/kg, route intravenous. Type of series: ADME, organism-based. As to conditions: rat, in vivo, iv, read-out: Vdss.
A short description of series [8]: Plasma concentration was determined in rats at 10 mg/kg, p.o. dose. It is filed as ADME, organism-based. As to conditions: rat, po. More on the design: dose 10 mg/kg, route oral.
The nature of series [9]: Plasma concentration was determined in rats at 20 mg/kg, i.p. dose. It is filed as ADME, organism-based. Also noted: dose 20 mg/kg, route intraperitoneal. The following applies: rat, ip.
Series [10] is described as follows: Plasma concentration was determined in rats at 2 mg/kg, i.v. dose. As to conditions: rat, iv. It is filed as ADME, organism-based. More on the design: dose 2 mg/kg, route intravenous.
Series [11] in a line: Maximum plasma concentration in rats at 10 mg/kg, p.o. dose. It is filed as ADME, organism-based. Also noted: dose 10 mg/kg, route oral. The following applies: rat, po.
Series [12] can be described thus: Maximum plasma concentration in rats at 20mg/kg, i.p. dose. The following applies: rat, ip. Type of series: ADME, organism-based. Also noted: dose 20 mg/kg, route intraperitoneal.
The nature of series [13]: Bioavailability was determined in rats at 10 mg/kg, p.o. dose. Type of series: ADME, organism-based. As to conditions: rat, in vivo, po.
Series [14] concerns Rattus norvegicus. Kind of series: Time required by compound for reaching maximum plasma concentration was determined in rats at 10 mg/kg, p.o. dose. Also noted: dose 10 mg/kg, route oral. It is filed as ADME, organism-based. The following applies: in vivo, po.

As for `CCOc1ccc(-n2c(C)c3c(C)nnc(-c4ccc(CC)cc4)c3c2C)cc1`, the pIC50 in series [1] was 6.97.

Turning to `CCOc1ccc(-n2c(C)c3c(C)nnc(-c4ccccc4Cl)c3c2C)cc1`, the pIC50 in series [1] was 5.36. Same read-out and setting: in the case of `CCOc1ccc(-n2c(C)c3c(C)nnc(CC(C)CC(C)(C)C)c3c2C)cc1` (stereo not drawn) it was 6.24; in that of `CCOc1ccc(-n2c(C)c3c(C)nnc(Nc4ccc(OC)cc4)c3c2C)cc1`, 6.36; in that of `CCCCCc1nnc(C)c2c(C)n(-c3ccc(OCC)cc3)c(C)c12`, 6.44.

For the molecule `CCOc1ccc(-n2c(C)c3c(C)nnc(CCC4CCCC4)c3c2C)cc1`, in [1], the pIC50 was 6.83. The same measure, in the same setting: with `COc1ccc(-n2c(C)c3c(C)nnc(C)c3c2C)cc1` the figure was below 5.00. `CCOc1ccc(-n2c(C)c3c(C)nnc(-c4ccc(OC(F)(F)F)cc4)c3c2C)cc1`: the pIC50 in series [1] was 5.76.

For `CCOc1ccc(-n2c(C)c3c(C)nnc(-c4cccc(Cl)c4)c3c2C)cc1`, in [1], the pIC50 was 5.80. `CCOc1ccc(-n2c(C)c3c(C)nnc(Nc4ccc(C)cc4)c3c2C)cc1`: in [1], the pIC50 was 6.62. Take `CCOc1ccc(-n2c(C)c3c(C)nnc(-c4ccc(-c5ccccc5)cc4)c3c2C)cc1`: in [1], the pIC50 was 5.90. In the case of `CCOc1ccc(-n2c(C)c3c(C)nnc(N(C)C)c3c2C)cc1`, the negative-log IC50 (pIC50) in [1] is 6.77. For the molecule `CCOc1ccc(-n2c(C)c3c(C)nnc(CC4CCCC4)c3c2C)cc1`, the pIC50 in series [1] was 6.68.

For `CCOc1ccc(-n2c(C)c3c(C)nnc(C4CCCCC4)c3c2C)cc1`, the pIC50 in series [1] is 6.63. For the molecule `CCOc1ccc(-n2c(C)c3c(C)nnc(C4CC4)c3c2C)cc1`, the pIC50 in series [1] was 6.77. As to `CCOc1ccc(-n2c(C)c3c(C)nnc(OC)c3c2C)cc1`, in series [1], the pIC50 is 5.66. As to `CCOc1ccc(-n2c(C)c3c(C)nnc(-c4cccc(OC)c4)c3c2C)cc1`, the pIC50 in series [1] was 6.47. On to `CCOc1ccc(-n2c(C)c3c(C)nnc(C)c3c2C)cc1`, for which the figures for the half-life in [2], in [3] and in [4] were 4.5 h, 1.2 h and 0.91 h, respectively. For the same molecule, in series [5], the clearance is 18.5 mL/min/kg. For the same molecule, the T max amounted to 0.3 h with Rattus norvegicus [6] and 2.8 h in the series on Rattus norvegicus [14]. The Vd in series [7] came to 1.3 L/kg. The values for the AUC in series [8], in [9] and in series [10] were 27 µM·h, 141 µM·h and 6.4 µM·h, respectively. For the same molecule, the Cmax in series [11] was 3.6 µM; in [12] it was 101 µM. In series [13], this molecule yielded a bioavailability of 81%. In addition, the pIC50 in series [1] is 6.74. Take `CCOc1ccc(-n2c(C)c3c(C)nnc(-c4ccc(Cl)cc4)c3c2C)cc1`: the negative logarithm of the IC50 (pIC50) in series [1] was 6.15. Consider `CCOc1ccc(-n2c(C)c3c(C)nnc(CC(C)C)c3c2C)cc1`, for which the negative logarithm of the IC50 (pIC50) in [1] was 6.77. With `CCOc1ccc(-n2c(C)c3c(C)nnc(-c4ccc(C)cc4)c3c2C)cc1`, the pIC50 in series [1] is 7.07. For `CCOc1ccc(-n2c(C)c3c(C)nnc(CCC(C)C)c3c2C)cc1`, the pIC50 in series [1] was 6.58. In the case of `CCOc1ccc(-c2nnc(C)c3c(C)n(-c4ccc(OCC)cc4)c(C)c23)cc1`, the pIC50 in series [1] is 6.82. In the case of `CCOc1ccc(-n2c(C)c3c(C)nnc(Nc4ccccc4)c3c2C)cc1`, the pIC50 in series [1] is 7.12.

As for `CCOc1ccc(-n2c(C)c3c(C)nnc(-c4ccc(OC)cc4OC)c3c2C)cc1`, in series [1], the pIC50 was 6.22. `CCOc1ccc(-n2c(C)c3c(C)nnc(Nc4ccc(N)cc4)c3c2C)cc1`: the pIC50 in [1] was below 5.00.

Turning to `CCOc1ccc(-n2c(C)c3c(C)nnc(-c4ccc(F)cc4)c3c2C)cc1`, the pIC50 in series [1] is 6.28. For `CCOc1ccc(-n2c(C)c3c(C)nnc(-c4ccccc4)c3c2C)cc1`, in series [1], the pIC50 is 6.42. In the case of `CCOc1ccc(-n2c(C)c3c(C)nnc(-c4ccccc4OC)c3c2C)cc1`, the pIC50 in [1] is 6.13. Still for that read-out and setting: in the case of `CCOc1ccc(-n2c(C)c3c(C)nnc(C4CCCC4)c3c2C)cc1` it was 6.73. Consider `CCOc1ccc(-n2c(C)c3c(C)nnc(CC)c3c2C)cc1`, for which, in [1], the pIC50 is 6.60. Take `CCOc1ccccc1-n1c(C)c2c(C)nnc(C)c2c1C`: the pIC50 in series [1] was 5.73.

Turning to `CCOc1ccc(-n2c(C)c3c(C)nnc(NC)c3c2C)cc1`, the pIC50 in series [1] was 7.40.

`CCOc1ccc(-n2c(C)c3c(C)nnc(Nc4ccncc4)c3c2C)cc1`: the pIC50 in series [1] is below 5.00. The same measure, in the same setting: with `CCOc1cccc(-n2c(C)c3c(C)nnc(C)c3c2C)c1` the figure was below 5.00.
